From patent US11155542B2, “Antimicrobial compounds, their use for the treatment of mammalian infections and a new metabolic mechanism” (priority 2016, dated 2021)
Converted amounts (≈) assume the structure as drawn.

Each compound was assayed on Mtb (PDR) 12700 (assay: Resazurin microtiter assay (REMA), MIC Mtb (PDR) 12700). Conditions: Mycobacterium tuberculosis; PDR = poly drug resistant (isoniazid and streptomycin).
Assay type: cell-based

Compound | MIC [ng/mL]
C[C@H]1COC2(CCN(c3nc(=O)c4cc(C(F)(F)F)cc([N+](=O)[O-])c4s3)CC2)O1 [BTZ043, (S)-2-(2-methyl-1,4-dioxa-8-azaspiro[4.5]decan-8-yl)-8-nitro-6-(trifluoro-methyl)-4H-1,3-benzothiazin-4-one, reference compound] | 2 (≈ 4.64 nM)
Cc1c(C(F)(F)F)cc2c(=O)nc(N3CCC4(CC3)OC[C@H](C)O4)sc2c1[N+](=O)[O-] [Example 9a, (S)-7-Methyl-2-(2-methyl-1,4-dioxa-8-azaspiro[4.5]decan-8-yl)-8-nitro-6-(trifluoromethyl)-4H-1,3-benzothiazin-4-one] | 250 (≈ 561 nM)
Cc1c(C(F)(F)F)cc([N+](=O)[O-])c2sc(N3CCC4(CC3)OC[C@H](C)O4)nc(=O)c12 [Example 9b, (S)-5-Methyl-2-(2-methyl-1,4-dioxa-8-azaspiro[4.5]decan-8-yl)-8-nitro-6-(trifluoromethyl)-4H-1,3-benzothiazin-4-one] | 4 (≈ 8.98 nM)
Cc1c(C(F)(F)F)cc([N+](=O)[O-])c2sc(N3CCN(CC4CCCCC4)CC3)nc(=O)c12 [Example 16, 2-(4-(Cyclohexylmethyl)piperazin-1-yl)-5-methyl-8-nitro-6-(trifluoromethyl)-4H-1,3-benzothiazin-4-one] | ≤ 0.063
